Assay results taken from patent publication US8952024B2, “Herbicidal pyrimidone derivatives” (E I du Pont de Nemours and Company, priority 2009, dated 2015).

Legend:
Assay type in all cases: in vivo
[1] = test system: pigweed (Amaranthus retroflexus); test: Test B pre-/postemergence plant response
How it was run: (§1)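 Compound in solvent + surfactant applied pre-em (loam/sand) or post-em (plants 2–18 cm, peat medium); greenhouse hold 13–15 days; visual 0–100 control score.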

[2] = test system: nightshade (eastern black nightshade, Solanum ptycanthum); test: Test B pre-/postemergence plant response; conditions: Preemergence; for Nightshade plant response rating: 125 g ai/ha
How it was run: as §1

[3] = test system: sunflower (common oilseed sunflower, Helianthus annuus); test: Test B pre-/postemergence plant response; conditions: Preemergence; for Sunflower plant response rating: 125 g ai/ha
How it was run: as §1

wild oat (Avena fatua) = test: Test B pre-/postemergence plant response
How it was run: as §1

[4] = test system: galium (catchweed bedstraw, Galium aparine); test: Test B pre-/postemergence plant response; conditions: Preemergence; for Galium plant response rating: 125 g ai/ha
How it was run: as §1

[5] = test system: canarygrass (Phalaris minor); test: Test B postemergence plant response; conditions: Postemergence; for Canarygrass plant response rating: 250 g ai/ha, scale 0 to 100
How it was run: (§2)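 Visual ratings from 0 (no effect) to 100 (complete control), made against controls 13–15 days after treatment, kept in a greenhouse. Compounds were applied postemergence to potted plants at the 1- to 4-leaf stage (2–18 cm).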

[6] = test system: winter barley (Hordeum vulgare); test: Test B postemergence plant response; conditions: Postemergence; for Barley plant response rating: 250 g ai/ha, scale 0 to 100
How it was run: as §2

[7] = test system: chickweed (Stellaria media); test: Test B postemergence plant response; conditions: Postemergence; for Chickweed plant response rating: 250 g ai/ha, scale 0 to 100
How it was run: as §2

[8] = test system: windgrass (Apera spica-venti); test: Test B postemergence plant response; conditions: Postemergence; for Windgrass plant response rating: 250 g ai/ha, scale 0 to 100
How it was run: as §2

[9] = test system: goosegrass (Eleusine indica); test: Test B pre-/postemergence plant response; conditions: Preemergence, 62 g ai/ha; scale 0 to 100, 0 no effect, 100 complete control
[10] = test system: barnyardgrass (Echinochloa crus-galli); test: Test B flooded paddy test; conditions: for Plant response rating, Flood, Barnyardgrass: 250 g ai/ha, flooded paddy test, visual rating on 0 to 100 scale (0 no effect, 100 complete control) after 13 to 15 days; for Plant response rating, Barnyardgrass: Flood (flooded paddy test), 62 g ai/ha, scale 0 to 100, 0 is no effect, 100 is complete control, 13 to 15 days
How it was run: (§3)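 Each compound is added to standing floodwater (3 cm above soil, maintained) in pots of 2-leaf-stage plants; greenhouse exposure lasts 13–15 d before visual comparison with controls on a 0–100 control scale.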

rice (Oryza sativa) = test: Test B flooded paddy test; conditions: for Plant response rating, Flood, Rice: 250 g ai/ha, flooded paddy test, visual rating on 0 to 100 scale (0 no effect, 100 complete control) after 13 to 15 days; for Plant response rating, Rice: Flood (flooded paddy test), 62 g ai/ha, scale 0 to 100, 0 is no effect, 100 is complete control, 13 to 15 days
How it was run: as §3

[11] = test system: umbrella sedge (Cyperus difformis); test: Test B flooded paddy test; conditions: for Plant response rating, Flood, Sedge, Umbrella: 250 g ai/ha, flooded paddy test, visual rating on 0 to 100 scale (0 no effect, 100 complete control) after 13 to 15 days; for Plant response rating, Sedge, Umbrella: Flood (flooded paddy test), 62 g ai/ha, scale 0 to 100, 0 is no effect, 100 is complete control, 13 to 15 days
How it was run: as §3

[12] = test system: ducksalad (Heteranthera limosa); test: Test B flooded paddy test; conditions: for Plant response rating, Flood, Ducksalad: 250 g ai/ha, flooded paddy test, visual rating on 0 to 100 scale (0 no effect, 100 complete control) after 13 to 15 days; for Plant response rating, Ducksalad: Flood (flooded paddy test), 62 g ai/ha, scale 0 to 100, 0 is no effect, 100 is complete control, 13 to 15 days
How it was run: as §3

[13] = 250 g ai/ha, Preemergence, 0 to 100 scale
[14] = Postemergence, 31 g ai/ha, scale 0 to 100 (0 no effect, 100 complete control)
[15] = Postemergence, 62 g ai/ha, scale 0 (no effect) to 100 (complete control), 13 to 15 days
[16] = Postemergence, 125 g ai/ha, visual rating after 13 to 15 days, scale 0 (no effect) to 100 (complete control)
[17] = Postemergence, 250 g ai/ha, scale 0 to 100
[18] = Preemergence, 31 g ai/ha, scale 0 to 100 (0 no effect, 100 complete control)
[19] = Preemergence, 62 g ai/ha, scale 0 to 100, 0 no effect, 100 complete control
[20] = Preemergence, 125 g ai/ha, 0 to 100 scale
[21] = 31 g ai/ha, scale 0 to 100 (0 no effect, 100 complete control)
[22] = 62 g ai/ha, scale 0 to 100, 0 no effect, 100 complete control
[23] = 62 g ai/ha, scale 0 (no effect) to 100 (complete control), 13 to 15 days
[24] = 125 g ai/ha, scale 0 to 100 (0 no effect, 100 complete control), 13 to 15 days
[25] = 125 g ai/ha, visual rating after 13 to 15 days, scale 0 (no effect) to 100 (complete control)

## O=C1CCCC(O)=C1C(=O)c1cnc(-c2ccccc2)n(-c2ccc(F)cc2)c1=O [Compound 24]
[1]; [13]
  Plant response rating, Pigweed: 100
[1]; [14]
  Plant response rating, Pigweed: 70
[1]; [15]
  Plant response rating, Pigweed: 80
[1]; [16]
  Plant response rating, Pigweed: 80
[1]; [17]
  Pigweed plant response rating: 80
[1]; [18]
  Plant response rating, Pigweed: 98
[1]; [19]
  Plant response rating, Pigweed: 100
[1]; [20]
  Pigweed plant response rating: 100
[2]; 250 g ai/ha, 0 to 100 scale
  Plant response rating, Nightshade: 100
[2]; [21]
  Plant response rating, Nightshade: 90
[2]; [22]
  Plant response rating, Nightshade: 98
[2]; 0 to 100 scale
  Nightshade plant response rating: 100
[3]; 250 g ai/ha, 0 to 100 scale
  Plant response rating, Sunflower: 98
[3]; [21]
  Plant response rating, Sunflower: 85
[3]; [22]
  Plant response rating, Sunflower: 90
[3]; 0 to 100 scale
  Sunflower plant response rating: 95
Wild oat (Avena fatua); [13]
  Plant response rating, Oat, Wild: 80
Wild oat (Avena fatua); [14]
  Plant response rating, Oat, Wild: 40
Wild oat (Avena fatua); [15]
  Plant response rating, Oat, Wild: 50
Wild oat (Avena fatua); [16]
  Plant response rating, Oat, Wild: 60
Wild oat (Avena fatua); [17]
  Oat, Wild plant response rating: 80
Wild oat (Avena fatua); [18]
  Plant response rating, Oat, Wild: 0
Wild oat (Avena fatua); [19]
  Plant response rating, Oat, Wild: 0
Wild oat (Avena fatua); [20]
  Oat, Wild plant response rating: 0
[4]; 250 g ai/ha, 0 to 100 scale
  Plant response rating, Galium: 80
[4]; [21]
  Plant response rating, Galium: 0
[4]; [22]
  Plant response rating, Galium: 0
[4]; 0 to 100 scale
  Galium plant response rating: 10
[5]; [21]
  Plant response rating, Canarygrass: 40
[5]; [23]
  Plant response rating, Canarygrass: 40
[5]
  Canarygrass plant response rating: 60
[6]; [21]
  Plant response rating, Barley: 0
[6]; [23]
  Plant response rating, Barley: 5
[6]; [24]
  Plant response rating, Barley: 50
[6]
  Barley plant response rating: 70
[7]; [21]
  Plant response rating, Chickweed: 80
[7]; [23]
  Plant response rating, Chickweed: 90
[7]; [25]
  Plant response rating, Chickweed: 95
[7]
  Chickweed plant response rating: 100
[8]; [21]
  Plant response rating, Windgrass: 20
[8]; [23]
  Plant response rating, Windgrass: 30
[8]; [25]
  Plant response rating, Windgrass: 60
[8]
  Windgrass plant response rating: 80
[9]
  Plant response rating, Goosegrass: 98
[10]
  Plant response rating, Flood, Barnyardgrass: 20
  Plant response rating, Barnyardgrass: 0
Rice (Oryza sativa)
  Plant response rating, Flood, Rice: 0
  Plant response rating, Rice: 0
[11]
  Plant response rating, Flood, Sedge, Umbrella: 75
  Plant response rating, Sedge, Umbrella: 0
[12]
  Plant response rating, Flood, Ducksalad: 75
  Plant response rating, Ducksalad: 20

## Cc1cccc(-n2c(-c3ccccc3)ncc(C(=O)C3=C(O)CCCC3=O)c2=O)c1C [Compound 27]
[1]; [13]
  Plant response rating, Pigweed: 100
[1]; [14]
  Plant response rating, Pigweed: 98
[1]; [15]
  Plant response rating, Pigweed: 98
[1]; [16]
  Plant response rating, Pigweed: 100
[1]; [17]
  Pigweed plant response rating: 100
[1]; [18]
  Plant response rating, Pigweed: 100
[1]; [19]
  Plant response rating, Pigweed: 100
[1]; [20]
  Pigweed plant response rating: 100
[2]; 250 g ai/ha, 0 to 100 scale
  Plant response rating, Nightshade: 100
[2]; [21]
  Plant response rating, Nightshade: 80
[2]; [22]
  Plant response rating, Nightshade: 98
[2]; 0 to 100 scale
  Nightshade plant response rating: 100
[3]; 250 g ai/ha, 0 to 100 scale
  Plant response rating, Sunflower: 100
[3]; [21]
  Plant response rating, Sunflower: 75
[3]; [22]
  Plant response rating, Sunflower: 75
[3]; 0 to 100 scale
  Sunflower plant response rating: 90
Wild oat (Avena fatua); [13]
  Plant response rating, Oat, Wild: 50
Wild oat (Avena fatua); [14]
  Plant response rating, Oat, Wild: 45
Wild oat (Avena fatua); [15]
  Plant response rating, Oat, Wild: 50
Wild oat (Avena fatua); [16]
  Plant response rating, Oat, Wild: 50
Wild oat (Avena fatua); [17]
  Oat, Wild plant response rating: 65
Wild oat (Avena fatua); [18]
  Plant response rating, Oat, Wild: 0
Wild oat (Avena fatua); [19]
  Plant response rating, Oat, Wild: 0
Wild oat (Avena fatua); [20]
  Oat, Wild plant response rating: 30
[4]; 250 g ai/ha, 0 to 100 scale
  Plant response rating, Galium: 95
[4]; [21]
  Plant response rating, Galium: 0
[4]; [22]
  Plant response rating, Galium: 50
[4]; 0 to 100 scale
  Galium plant response rating: 85
[5]; [21]
  Plant response rating, Canarygrass: 10
[5]; [23]
  Plant response rating, Canarygrass: 10
[5]; [25]
  Plant response rating, Canarygrass: 30
[5]
  Canarygrass plant response rating: 50
[6]; [21]
  Plant response rating, Barley: 0
[6]; [23]
  Plant response rating, Barley: 0
[6]; [24]
  Plant response rating, Barley: 10
[6]
  Barley plant response rating: 20
[7]; [21]
  Plant response rating, Chickweed: 40
[7]; [23]
  Plant response rating, Chickweed: 45
[7]; [25]
  Plant response rating, Chickweed: 50
[7]
  Chickweed plant response rating: 80
[8]; [21]
  Plant response rating, Windgrass: 10
[8]; [23]
  Plant response rating, Windgrass: 10
[8]; [25]
  Plant response rating, Windgrass: 50
[8]
  Windgrass plant response rating: 60
[9]
  Plant response rating, Goosegrass: 98
[10]
  Plant response rating, Flood, Barnyardgrass: 40
  Plant response rating, Barnyardgrass: 0
Rice (Oryza sativa)
  Plant response rating, Flood, Rice: 0
  Plant response rating, Rice: 0
[11]
  Plant response rating, Flood, Sedge, Umbrella: 85
  Plant response rating, Sedge, Umbrella: 75
[12]
  Plant response rating, Flood, Ducksalad: 85
  Plant response rating, Ducksalad: 75
